# Reference: patent publication US20250230193A1, “CYCLIC COMPOUND HAVING SELECTIVE KRAS INHIBITORY EFFECT ON HRAS AND NRAS” (CHUGAI SEIYAKU KABUSHIKI KAISHA, priority 2022, published 2025)
# Key:
# [1] = target: GDP-bound NRAS wild-type protein (Homo sapiens, UniProt P01111); experiment: Binding to NRAS by surface plasmon resonance (SPR), Single Cycle Kinetics; settings: SPR; KD ratio class
# [2] = target: GDP-bound HRAS wild-type protein (Homo sapiens, UniProt P01112); experiment: Binding to HRAS by surface plasmon resonance (SPR), Single Cycle Kinetics; settings: SPR; KD ratio class
# Chain of GDP-bound HRAS wild-type protein (P01112 whole entry): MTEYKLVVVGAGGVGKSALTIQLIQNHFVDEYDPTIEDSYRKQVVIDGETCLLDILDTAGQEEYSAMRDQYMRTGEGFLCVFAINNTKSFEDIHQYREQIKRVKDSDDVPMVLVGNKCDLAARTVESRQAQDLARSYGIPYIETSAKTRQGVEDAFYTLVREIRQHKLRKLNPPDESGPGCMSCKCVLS
# [3] = system: human lung cancer strain NCI-H441; experiment: cells; settings: NCI-H441, 96 h, read-out: NCI-H441 IC50 (nM)
# Chain of GDP-bound NRAS wild-type protein (P01111 whole entry): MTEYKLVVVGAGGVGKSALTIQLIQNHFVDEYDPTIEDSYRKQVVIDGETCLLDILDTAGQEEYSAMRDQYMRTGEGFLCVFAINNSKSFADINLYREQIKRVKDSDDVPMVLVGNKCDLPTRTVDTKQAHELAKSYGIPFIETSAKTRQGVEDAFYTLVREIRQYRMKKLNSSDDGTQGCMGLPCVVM
SMILES,NRAS/KRAS (ratio of KD value for GDP-bound NRAS wild-type protein to KD value for KRAS) [1],HRAS/KRAS (ratio of KD value for GDP-bound HRAS wild-type protein to KD value for KRAS) [2],IC50 [3] [nM]
CCO[C@@H]1C[C@H]2C(=O)NC3(CCC3)C(=O)N(C)[C@@H](C(CC)CC)C(=O)N(C)[C@H](C(=O)N(C)C)CC(=O)N(C)[C@@H](COC)C(=O)N[C@@H]([C@@H](C)CC)C(=O)N(C)CC(=O)N(C)[C@H]3C/C=C\CCN(C3=O)[C@@H](Cc3ccc(C(F)(F)F)cc3)C(=O)N(C)CC(=O)N[C@@H](CCc3ccc(Cl)c(Cl)c3)C(=O)N2C1 [PP1221],AA (a compound having 20 or more is denoted as AA),A (a compound having 10 or more and less than 20 is denoted as A),40.6
CCO[C@@H]1C[C@H]2C(=O)NC3(CCC3)C(=O)N(C)[C@@H](C(CC)CC)C(=O)N(C)[C@H](C(=O)N(C)C)CC(=O)N(C)[C@@H](C)C(=O)N[C@@H]([C@@H](C)CC)C(=O)N(C)CC(=O)N(C)[C@H]3C/C=C\CCN(C3=O)[C@@H](Cc3ccc(C(F)(F)F)cc3)C(=O)N(C)CC(=O)N[C@@H](CCc3ccc4sccc4c3)C(=O)N2C1 [PP1222],A (a compound having 10 or more and less than 20 is denoted as A),A (a compound having 10 or more and less than 20 is denoted as A),301
CCO[C@@H]1C[C@H]2C(=O)NC3(CCC3)C(=O)N(C)[C@@H](C(CC)CC)C(=O)N(C)[C@H](C(=O)N(C)C)CC(=O)N(C)[C@@H](CC)C(=O)N[C@@H]([C@@H](C)CC)C(=O)N(C)CC(=O)N(C)[C@H]3C/C=C\CCN(C3=O)[C@@H](Cc3ccc(C(F)(F)F)cc3)C(=O)N(C)CC(=O)N[C@@H](CCc3ccc4sccc4c3)C(=O)N2C1 [PP1223],AA (a compound having 20 or more is denoted as AA),A (a compound having 10 or more and less than 20 is denoted as A),117
CCC[C@H]1C(=O)N[C@@H]([C@@H](C)CC)C(=O)N(C)CC(=O)N(C)[C@H]2C/C=C\CCN(C2=O)[C@@H](Cc2ccc(C(F)(F)F)cc2)C(=O)N(C)CC(=O)N[C@@H](CCc2ccc3sccc3c2)C(=O)N2C[C@H](OCC)C[C@H]2C(=O)NC2(CCC2)C(=O)N(C)[C@@H](C(CC)CC)C(=O)N(C)[C@H](C(=O)N(C)C)CC(=O)N1C [PP1224],A (a compound having 10 or more and less than 20 is denoted as A),A (a compound having 10 or more and less than 20 is denoted as A),122
CCO[C@@H]1C[C@H]2C(=O)NC3(CCC3)C(=O)N(C)[C@@H](C(CC)CC)C(=O)N(C)[C@H](C(=O)N(C)C)CC(=O)N(C)[C@@H](CC(C)C)C(=O)N[C@@H]([C@@H](C)CC)C(=O)N(C)CC(=O)N(C)[C@H]3C/C=C\CCN(C3=O)[C@@H](Cc3ccc(C(F)(F)F)cc3)C(=O)N(C)CC(=O)N[C@@H](CCc3ccc4sccc4c3)C(=O)N2C1 [PP1225],AA (a compound having 20 or more is denoted as AA),A (a compound having 10 or more and less than 20 is denoted as A),92.5
CCCCCC[C@H]1C(=O)N[C@@H]([C@@H](C)CC)C(=O)N(C)CC(=O)N(C)[C@H]2C/C=C\CCN(C2=O)[C@@H](Cc2ccc(C(F)(F)F)cc2)C(=O)N(C)CC(=O)N[C@@H](CCc2ccc3sccc3c2)C(=O)N2C[C@H](OCC)C[C@H]2C(=O)NC2(CCC2)C(=O)N(C)[C@@H](C(CC)CC)C(=O)N(C)[C@H](C(=O)N(C)C)CC(=O)N1C [PP1226],AA (a compound having 20 or more is denoted as AA),A (a compound having 10 or more and less than 20 is denoted as A),106
CCO[C@@H]1C[C@H]2C(=O)NC3(CCC3)C(=O)N(C)[C@@H](C(CC)CC)C(=O)N(C)[C@H](C(=O)N(C)C)CC(=O)N(C)[C@@H](CC3CC3)C(=O)N[C@@H]([C@@H](C)CC)C(=O)N(C)CC(=O)N(C)[C@H]3C/C=C\CCN(C3=O)[C@@H](Cc3ccc(C(F)(F)F)cc3)C(=O)N(C)CC(=O)N[C@@H](CCc3ccc4sccc4c3)C(=O)N2C1 [PP1227],A (a compound having 10 or more and less than 20 is denoted as A),A (a compound having 10 or more and less than 20 is denoted as A),128
CCO[C@@H]1C[C@H]2C(=O)NC3(CCC3)C(=O)N(C)[C@@H](C(CC)CC)C(=O)N(C)[C@H](C(=O)N(C)C)CC(=O)N(C)[C@@H](COC)C(=O)N[C@@H]([C@@H](C)CC)C(=O)N(C)CC(=O)N(C)[C@H]3C/C=C\CCN(C3=O)[C@@H](Cc3ccc(C(F)(F)F)cc3)C(=O)N(C)CC(=O)N[C@@H](CCc3ccc4sccc4c3)C(=O)N2C1 [PP1229],A (a compound having 10 or more and less than 20 is denoted as A),A (a compound having 10 or more and less than 20 is denoted as A),144
CCO[C@@H]1C[C@H]2C(=O)NC3(CCC3)C(=O)N(C)[C@@H](C(CC)CC)C(=O)N(C)[C@H](C(=O)N(C)C)CC(=O)N(C)[C@@H](CC)C(=O)N[C@@H]([C@@H](C)CC)C(=O)N(C)CC(=O)N(C)[C@H]3C/C=C\CCN(C3=O)[C@@H](Cc3ccc(C(F)(F)F)cc3)C(=O)N(C)CC(=O)N[C@@H](CCc3cc(F)c(Cl)c(F)c3)C(=O)N2C1 [PP1230],A (a compound having 10 or more and less than 20 is denoted as A),A (a compound having 10 or more and less than 20 is denoted as A),110
CCC[C@H]1C(=O)N[C@@H]([C@@H](C)CC)C(=O)N(C)CC(=O)N(C)[C@H]2C/C=C\CCN(C2=O)[C@@H](Cc2ccc(C(F)(F)F)cc2)C(=O)N(C)CC(=O)N[C@@H](CCc2cc(F)c(Cl)c(F)c2)C(=O)N2C[C@H](OCC)C[C@H]2C(=O)NC2(CCC2)C(=O)N(C)[C@@H](C(CC)CC)C(=O)N(C)[C@H](C(=O)N(C)C)CC(=O)N1C [PP1231],AA (a compound having 20 or more is denoted as AA),A (a compound having 10 or more and less than 20 is denoted as A),23.1
CCO[C@@H]1C[C@H]2C(=O)NC3(CCC3)C(=O)N(C)[C@@H](C(CC)CC)C(=O)N(C)[C@H](C(=O)N(C)C)CC(=O)N(C)[C@@H](CC(C)C)C(=O)N[C@@H]([C@@H](C)CC)C(=O)N(C)CC(=O)N(C)[C@H]3C/C=C\CCN(C3=O)[C@@H](Cc3ccc(C(F)(F)F)cc3)C(=O)N(C)CC(=O)N[C@@H](CCc3cc(F)c(Cl)c(F)c3)C(=O)N2C1 [PP1232],A (a compound having 10 or more and less than 20 is denoted as A),A (a compound having 10 or more and less than 20 is denoted as A),59.7
CCO[C@@H]1C[C@H]2C(=O)NC3(CCC3)C(=O)N(C)[C@@H](C(CC)CC)C(=O)N(C)[C@H](C(=O)N(C)C)CC(=O)N(C)[C@@H](CC3CC3)C(=O)N[C@@H]([C@@H](C)CC)C(=O)N(C)CC(=O)N(C)[C@H]3C/C=C\CCN(C3=O)[C@@H](Cc3ccc(C(F)(F)F)cc3)C(=O)N(C)CC(=O)N[C@@H](CCc3cc(F)c(Cl)c(F)c3)C(=O)N2C1 [PP1233],AA (a compound having 20 or more is denoted as AA),A (a compound having 10 or more and less than 20 is denoted as A),34.7
CCO[C@@H]1C[C@H]2C(=O)NC3(CCC3)C(=O)N(C)[C@@H](C3CCCC3)C(=O)N(C)[C@@H](C(=O)N(C)C)CC(=O)N(C)[C@@H](CC)C(=O)N[C@@H]([C@@H](C)CC)C(=O)N(C)CC(=O)N(C)[C@H]3C/C=C\CCN(C3=O)[C@@H](Cc3ccc(C(F)(F)F)cc3)C(=O)N(C)CC(=O)N[C@@H](CCc3cc(F)c(C(F)(F)F)c(F)c3)C(=O)N2C1 [PP1234],B (a compound having 3 or more and less than 10 is denoted as B),C (A compound having a KD ratio of 0.1 or more and less than 3 is denoted as C),398
CCO[C@@H]1C[C@H]2C(=O)NC3(CCC3)C(=O)N(C)[C@@H](C3CCCC3)C(=O)N(C)[C@@H](C(=O)N(C)C)CC(=O)N(C)[C@@H](CC3CCCC3)C(=O)N[C@@H]([C@@H](C)CC)C(=O)N(C)CC(=O)N(C)[C@H]3C/C=C\CCN(C3=O)[C@@H](Cc3ccc(C(F)(F)F)cc3)C(=O)N(C)CC(=O)N[C@@H](CCc3cc(F)c(C(F)(F)F)c(F)c3)C(=O)N2C1 [PP1235],B (a compound having 3 or more and less than 10 is denoted as B),C (A compound having a KD ratio of 0.1 or more and less than 3 is denoted as C),386
CCO[C@@H]1C[C@H]2C(=O)NC3(CCC3)C(=O)N(C)[C@@H](C3CCCC3)C(=O)N(C)[C@H](C(=O)N(C)C)CC(=O)N(C)[C@@H](CC)C(=O)N[C@@H]([C@@H](C)CC)C(=O)N(C)CC(=O)N(C)[C@H]3C/C=C\CCN(C3=O)[C@@H](Cc3ccc(C(F)(F)F)cc3)C(=O)N(C)CC(=O)N[C@@H](CCc3ccc(Cl)c(Cl)c3)C(=O)N2C1 [PP1249],A (a compound having 10 or more and less than 20 is denoted as A),A (a compound having 10 or more and less than 20 is denoted as A),55.4
CCC[C@H]1C(=O)N[C@@H]([C@@H](C)CC)C(=O)N(C)CC(=O)N(C)[C@H]2C/C=C\CCN(C2=O)[C@@H](Cc2ccc(C(F)(F)F)cc2)C(=O)N(C)CC(=O)N[C@@H](CCc2ccc(Cl)c(Cl)c2)C(=O)N2C[C@H](OCC)C[C@H]2C(=O)NC2(CCC2)C(=O)N(C)[C@@H](C2CCCC2)C(=O)N(C)[C@H](C(=O)N(C)C)CC(=O)N1C [PP1250],AA (a compound having 20 or more is denoted as AA),A (a compound having 10 or more and less than 20 is denoted as A),18.7
